Laboratory results from patent publication US9808003B2, “Herbicidally active 2-(substituted-phenyl)-cyclopentane-1,3-dione compounds and derivatives thereof” (Syngenta Limited, priority 2013, dated 2017).

Legend:
Format in all cases: in vivo
[1] = tested on: Avena fatua (AVEFA); assay: Test 1A glasshouse assay, pre-emergence herbicidal activity; settings: 312 h, 250 g/ha, 13 days after application, read-out: Pre-emergence herbicidal activity (% phytotoxicity) AVEFA
[2] = tested on: Echinochloa crus-galli (ECHCG); assay: as above; settings: 312 h, 250 g/ha, 13 days after application, read-out: Pre-emergence herbicidal activity (% phytotoxicity) ECHCG
[3] = tested on: Alopecurus myosuroides (ALOMY); assay: as above; settings: 312 h, 250 g/ha, 13 days after application, read-out: Pre-emergence herbicidal activity (% phytotoxicity) ALOMY
[4] = tested on: Lolium perenne (LOLPE); assay: as above; settings: 312 h, 250 g/ha, 13 days after application, read-out: Pre-emergence herbicidal activity (% phytotoxicity) LOLPE
[5] = tested on: Spring Barley “Harrington”; assay: Test 1B glasshouse assay, post-emergence herbicidal activity against cereal crops; settings: for Post-emergence herbicidal activity against cereal crops, percentage phytotoxicity, Spring Barley “Harrington”: 14 DAA
Outline: (§1)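 Visual percentage damage (100% = total, 0% = none) read 14 days after application, averaged over two replicates. Plants grown 14 days at 22/16 °C day/night before post-emergence spraying of unformulated compound (IF50/acetone, 0.5% v/v Adigor). Rates usually 60–120 g/ha; cloquintocet-mexyl 50 g/ha co-applied where stated.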

[6] = tested on: Winter Wheat “Hereward”; assay: as above; settings: for Post-emergence herbicidal activity against cereal crops, percentage phytotoxicity, Winter Wheat “Hereward”: 14 DAA
Outline: as §1

[7] = tested on: Winter Barley “Suzuka”; assay: as above; settings: for Post-emergence herbicidal activity against cereal crops, percentage phytotoxicity, Winter Barley “Suzuka”: 14 DAA
Outline: as §1

[8] = tested on: Spring Wheat “Teal”; assay: as above; settings: 14 DAA
Outline: as §1

[9] = 30 g/ha herbicide, 50 g/ha cloquintocet-mexyl
[10] = 45 g/ha herbicide, 50 g/ha cloquintocet-mexyl
[11] = 60 g/ha herbicide, 0 g/ha cloquintocet-mexyl
[12] = 60 g/ha herbicide, 50 g/ha cloquintocet-mexyl
[13] = herbicide 30 g/ha, cloquintocet-mexyl 50 g/ha
[14] = herbicide 60 g/ha, cloquintocet-mexyl 0 g/ha
[15] = herbicide 60 g/ha, cloquintocet-mexyl 50 g/ha
[16] = herbicide 45 g/ha, cloquintocet-mexyl 50 g/ha

SMILES | inhibition at 250 g/ha [1] [%] | inhibition at 250 g/ha [2] [%] | inhibition at 250 g/ha [3] [%] | inhibition at 250 g/ha [4] [%] | Percentage Phytotoxicity Spring Barley “Harrington” [5, 13] [%] | Percentage Phytotoxicity Spring Barley “Harrington” [5, 14] [%] | Percentage Phytotoxicity Spring Barley “Harrington” [5, 15] [%] | Percentage Phytotoxicity Winter Wheat “Hereward” [6, 13] [%] | Percentage Phytotoxicity Winter Wheat “Hereward” [6, 14] [%] | Percentage Phytotoxicity Winter Wheat “Hereward” [6, 15] [%] | Percentage Phytotoxicity Winter Barley “Suzuka” [7, 13] [%] | Percentage Phytotoxicity Winter Barley “Suzuka” [7, 14] [%] | Percentage Phytotoxicity Winter Barley “Suzuka” [7, 15] [%] | further results
Cc1cc(C)c(C2C(=O)CC(CCNC(=O)c3cccc(F)n3)C2=O)c(C)c1 (racemic) [Compound A89] | 100 | 100 | 100 | 100 | 13 | 88 | 43 | 10 | 75 | 25 | 8 | 90 | 25 | Post-emergence herbicidal activity against cereal crops, percentage phytotoxicity, Spring Barley “Harrington” [5, 9]: 13%; Post-emergence herbicidal activity against cereal crops, percentage phytotoxicity, Spring Barley “Harrington” [5, 10]: 55%; Post-emergence herbicidal activity against cereal crops, percentage phytotoxicity, Spring Barley “Harrington” [5, 11]: 95%; Post-emergence herbicidal activity against cereal crops, percentage phytotoxicity, Spring Barley “Harrington” [5, 12]: 85%; Post-emergence herbicidal activity against cereal crops, percentage phytotoxicity, Winter Wheat “Hereward” [6, 9]: 15%; Post-emergence herbicidal activity against cereal crops, percentage phytotoxicity, Winter Wheat “Hereward” [6, 10]: 25%; Post-emergence herbicidal activity against cereal crops, percentage phytotoxicity, Winter Wheat “Hereward” [6, 11]: 60%; Post-emergence herbicidal activity against cereal crops, percentage phytotoxicity, Winter Wheat “Hereward” [6, 12]: 28%; Post-emergence herbicidal activity against cereal crops, percentage phytotoxicity, Winter Barley “Suzuka” [7, 9]: 8%; Post-emergence herbicidal activity against cereal crops, percentage phytotoxicity, Winter Barley “Suzuka” [7, 10]: 20%; Post-emergence herbicidal activity against cereal crops, percentage phytotoxicity, Winter Barley “Suzuka” [7, 11]: 95%; Post-emergence herbicidal activity against cereal crops, percentage phytotoxicity, Winter Barley “Suzuka” [7, 12]: 73%; Post-emergence herbicidal activity against cereal crops, percentage phytotoxicity, Spring Wheat “Teal” [8, 9]: 13%; Post-emergence herbicidal activity against cereal crops, percentage phytotoxicity, Spring Wheat “Teal” [8, 10]: 20%; Post-emergence herbicidal activity against cereal crops, percentage phytotoxicity, Spring Wheat “Teal” [8, 11]: 75%; Post-emergence herbicidal activity against cereal crops, percentage phytotoxicity, Spring Wheat “Teal” [8, 12]: 50%
Cc1cc(C)c(C2C(=O)CC(CCNC(=O)c3ccc(Br)cn3)C2=O)c(C)c1 (racemic) [Compound A120, 5-bromo-N-{2-[2,4-dioxo-3-(2,4,6-trimethylphenyl)cyclopentyl]ethyl}pyridine-2-carboxamide] | 70 | 100 | 90 | 100 | 25 | 78 | 38 | 38 | 68 | 50 | 15 | 88 | 40 | Percentage Phytotoxicity Spring Barley “Harrington” [5, 16]: 38%; Percentage Phytotoxicity Winter Wheat “Hereward” [6, 16]: 50%; Percentage Phytotoxicity Winter Barley “Suzuka” [7, 16]: 40%
